These results are taken from ChEMBL document CHEMBL5108006, “Synthesis and antiviral properties of biomimetic iminosugar-based nucleosides” (Eur J Med Chem, 2022).

Usually EC50 stands for the concentration that produces a half-maximal response. Low values mean higher potency in that assay, high ones lower potency in that assay.

The subject of one data set is Human alphaherpesvirus 2. Type of data set: functional, organism-based. The following applies: Human alphaherpesvirus 2, G, HEL.
Data set [1] has as its system Human alphaherpesvirus 1. Type of data set: functional, organism-based. The following applies: Human alphaherpesvirus 1, KOS, HEL.
A further data set relates to Human adenovirus 2. The format is functional, organism-based. The following applies: Human mastadenovirus C, HEL.
Data set [2] concerns Human betaherpesvirus 5. Type of data set: functional, organism-based. The following applies: Human betaherpesvirus 5, Davis, HEL.
Data set [3] has as its system Human alphaherpesvirus 3. The format is functional, organism-based. The following applies: Human alphaherpesvirus 3, O7-1, HEL.
Data set [4] concerns Human alphaherpesvirus 1. The format is functional, organism-based. The following applies: Human alphaherpesvirus 1, KOS, HEL. This is another data set of the same source.
The subject of another data set is Vaccinia virus. Nature of the data set: microbe, parasite or virus in culture. The following applies: Orthopoxvirus vaccinia, HEL.
Data set [5] has as its system Human alphaherpesvirus 3. The format is functional, organism-based. The following applies: Human alphaherpesvirus 3, OKA, HEL.
A short description of data set [6]: (§1) Cytotoxicity against HEL cells assessed as alteration of cell morphology by microscopic analysis. The format is toxicity, cell-based. The following applies: human, HEL cells.
Data set [7] deals with Human betaherpesvirus 5. The format is functional, organism-based. The following applies: Human betaherpesvirus 5, AD-169, HEL.
The next data set concerns HEL. The description is as §1. Type of data set: toxicity, cell-based. The following applies: human, hel.

As to `O=c1[nH]c(=O)n([C@@H]2CN[C@H](CO)[C@@H](O)C2)cc1I`, the EC50 was 45 µM in the data set on Human alphaherpesvirus 2; 45 µM in the data set on Human alphaherpesvirus 1 [1]; 50 µM with Human adenovirus 2; 67 µM with Human betaherpesvirus 5 [2]; 61 µM with Human alphaherpesvirus 3 [3]; 34 µM in the data set with Human alphaherpesvirus 1 [4]. In addition, the EC50 is 50 µM in the data set on Vaccinia virus, 50 µM in the data set on Human alphaherpesvirus 3 [5] and 76 µM with Human betaherpesvirus 5 [7]. Moreover, the MCC in data set [6] was above 100 µM.

Turning to `Nc1nc2c(ncn2COC(CO)CO)c(=O)[nH]1` [GANCICLOVIR], the EC50 was 0.63 µM in the data set on Human betaherpesvirus 5 [2] and above 100 µM in the data set with Vaccinia virus. Besides, the MCC in data set [6] was above 100 µM.

For the molecule `Nc1nc(=O)n([C@@H]2CN[C@H](CO)[C@@H](O)C2)cc1F`, the Activity result in the data set with HEL was “Non-Toxic”.

Take `Nc1nc2c(ncn2COCCO)c(=O)[nH]1` [ACYCLOVIR]: the EC50 is 14.7 µM with Human alphaherpesvirus 3 [3], 126 µM in the data set on Human alphaherpesvirus 1 [4], above 250 µM in the data set on Vaccinia virus and 0.7 µM with Human alphaherpesvirus 3 [5]. For the same molecule, in data set [6], the MCC was above 250 µM.

In the data set on Human alphaherpesvirus 1 [4], `Nc1ccn(C[C@@H](CO)OCP(=O)(O)O)c(=O)n1` [CIDOFOVIR] came in with an EC50 of 1 µM. In [6], the MCC was above 250 µM.

Regarding `O=c1[nH]c(=O)n([C@H]2C[C@H](O)[C@@H](CO)O2)cc1/C=C/Br` [BRIVUDINE], the values for the concentration giving a half-maximal response (EC50) in the data set on Human alphaherpesvirus 3 [3] and with Human alphaherpesvirus 3 [5] were 2.4 µM and 0.042 µM, respectively. In [6], the MCC was above 250 µM.
